Blank lines part the entries; values can stand above or below the compound they belong to.
Assays:
MCF-7 = assay: Cancer cell growth inhibition, MCF-7; type: cell-based, human; settings: MCF-7, Breast Cancer, 72 h treatment
Protocol: (§1) Cell culture-based assays were used to evaluate the ability of compounds of the invention to inhibit cancer cell growth inhibition.
(§2) Cells were obtained from the American Type Culture Collection (ATCC). Cells were cultured at 37° C. with 5% CO2 in the appropriate growth medium (see table below), and harvested respectively during the logarithmic growth period and counted with hemocytometer. The cell viability was over 98% by trypan blue exclusion. Cell concentrations were adjusted between 5×10^4 and 2×10^5 cells/ml with respective medium.
(§3) Stock solutions of test compounds and positive drugs Doxorubicin (Zhejiang, Haizheng, China), Paclitaxel (Beijing, Xiehe, China), Vincristin (Shenzhen Wanle, China), 5-FU (Tianjin jinyaoanjisuan, China), Irinotecan (Jiangsu Hengrui, China) and Cisplatin Nanjing zhiyao, China) were prepared in dimethyl sulphoxide (DMSO) or PBS at 20 mM.
(§4) All treatments were performed in triplicate. 10 μl drug solution was added to each well and incubated for 72 hours. At the end of the incubation, 20 μl of the freshly prepared MTS/PMS mixture solution was added to each well and incubated for 4 hours at 37° C. in a humidified, 5% CO2 atmosphere. Absorbance was read at 490 nm using SpectraMAX Plus microplate spectrophotometer. […] In order to calculate IC50, a dose-responsive curve was fitted using nonlinear regression model with a sigmoidal dose response.

MDA-MB-231 = assay: Cancer cell growth inhibition, MDA-MB-231; type: cell-based, human; settings: MDA-MB-231, Breast Cancer, 72 h treatment
Protocol: as §1, §2, §3, §4

SK-BR-3 = assay: Cancer cell growth inhibition, SK-BR-3; type: cell-based, human; settings: SK-BR-3, Breast Cancer, 72 h treatment
Protocol: as §1, §2, §3, §4

DU145 = assay: Cancer cell growth inhibition, DU145; type: cell-based, human; settings: DU145, Prostate Cancer, 72 h treatment
Protocol: as §1, §2, §3, §4

LNCaP = assay: Cancer cell growth inhibition, LNCaP; type: cell-based, human; settings: Prostate Cancer, 72 h treatment
Protocol: as §1, §2, §3, §4

PC-3 = assay: Cancer cell growth inhibition, PC-3; type: cell-based, human; settings: PC-3, Prostate Cancer, 72 h treatment
Protocol: as §1, §2, §3, §4

DLD-1 = assay: Cancer cell growth inhibition, DLD-1; type: cell-based, human; settings: DLD-1, Colorectal Cancer, 72 h treatment
Protocol: as §1, §2, §3, §4

HT-29 = assay: Cancer cell growth inhibition, HT-29; type: cell-based, human; settings: HT-29, Colorectal Cancer, 72 h treatment
Protocol: as §1, §2, §3, §4

LoVo = assay: Cancer cell growth inhibition, LoVo; type: cell-based, human; settings: Colorectal Cancer, 72 h treatment
Protocol: as §1, §2, §3, §4

SW480 = assay: Cancer cell growth inhibition, SW480; type: cell-based, human; settings: SW480, Colorectal Cancer, 72 h treatment
Protocol: as §1, §2, §3, §4

SW620 = assay: Cancer cell growth inhibition, SW620; type: cell-based, human; settings: SW620, Colorectal Cancer, 72 h treatment
Protocol: as §1, §2, §3, §4

A549 = assay: Cancer cell growth inhibition, A549; type: cell-based, human; settings: A549, Lung Cancer, 72 h treatment
Protocol: as §1, §2, §3, §4

Calu-6 = assay: Cancer cell growth inhibition, Calu-6; type: cell-based, human; settings: Calu-6, Lung Cancer, 72 h treatment
Protocol: as §1, §2, §3, §4

NCI-H226 = assay: Cancer cell growth inhibition, NCI-H226; type: cell-based, human; settings: NCI-H226, Lung Cancer, 72 h treatment
Protocol: as §1, §2, §3, §4

NCI-H460 = assay: Cancer cell growth inhibition, NCI-H460; type: cell-based, human; settings: NCI-H460, Lung Cancer, 72 h treatment
Protocol: as §1, §2, §3, §4

SK-MES-1 = assay: Cancer cell growth inhibition, SK-MES-1; type: cell-based, human; settings: SK-MES-1, Lung Cancer, 72 h treatment
Protocol: as §1, §2, §3, §4

U87MG = assay: Cancer cell growth inhibition, U87MG; type: cell-based, human; settings: Glioblastoma, 72 h treatment
Protocol: as §1, §2, §3, §4

Bx-PC-3 = assay: Cancer cell growth inhibition, Bx-PC-3; type: cell-based, human; settings: Bx-PC-3, Pancreatic Cancer, 72 h treatment
Protocol: as §1, §2, §3, §4

PANC-1 = assay: Cancer cell growth inhibition, PANC-1; type: cell-based, human; settings: PANC-1, Pancreatic Cancer, 72 h treatment
Protocol: as §1, §2, §3, §4

786-O = assay: Cancer cell growth inhibition, 786-O; type: cell-based, human; settings: Kindney Cancer, 72 h treatment
Protocol: as §1, §2, §3, §4

Hep3B = assay: Cancer cell growth inhibition, Hep3B; type: cell-based, human; settings: Liver Cancer, 72 h treatment
Protocol: as §1, §2, §3, §4

A375 = assay: Cancer cell growth inhibition, A375; type: cell-based, human; settings: A375, Melanoma, 72 h treatment
Protocol: as §1, §2, §3, §4

SK-MEL-5 = assay: Cancer cell growth inhibition, SK-MEL-5; type: cell-based, human; settings: SK-MEL-5, Melanoma, 72 h treatment
Protocol: as §1, §2, §3, §4

CNE2 = assay: Cancer cell growth inhibition, CNE2; type: cell-based, human; settings: CNE2, Nasopharyngeal Cancer, 72 h treatment
Protocol: as §1, §2, §3, §4

MCG803 = assay: Cancer cell growth inhibition, MCG803; type: cell-based, human; settings: MCG803, Gastric Cancer, 72 h treatment
Protocol: as §1, §2, §3, §4

NCI-N87 = assay: Cancer cell growth inhibition, NCI-N87; type: cell-based, human; settings: NCI-N87, Gastric Cancer, 72 h treatment
Protocol: as §1, §2, §3, §4

BGC823 = assay: Cancer cell growth inhibition, BGC823; type: cell-based, human; settings: BGC823, Gastric Cancer, 72 h treatment
Protocol: as §1, §2, §3, §4

SK-OV-3 = assay: Cancer cell growth inhibition, SK-OV-3; type: cell-based, human; settings: SK-OV-3, Ovarian Cancer, 72 h treatment
Protocol: as §1, §2, §3, §4

OVCAR3 = assay: Cancer cell growth inhibition, OVCAR3; type: cell-based, human; settings: OVCAR3, Ovarian Cancer, 72 h treatment
Protocol: as §1, §2, §3, §4

K562 = assay: Cancer cell growth inhibition, K562; type: cell-based, human; settings: K562, CML, 72 h treatment
Protocol: as §1
as §2, with “The cell viability was over 98% by trypan blue exclusion.” left out
as §3, §4

KB = assay: Cancer cell growth inhibition, KB; type: cell-based, human; settings: Oral Cancer, 72 h treatment
Protocol: as §1, §2, §3, §4

RPMI-8226 = assay: Cancer cell growth inhibition, RPMI-8226; type: cell-based, human; settings: RPMI-8226, Orthotopic Multiple Myeloma, 72 h treatment
Protocol: as §1, §2, §3, §4

Human HDAC1 = Human HDAC1 (Homo sapiens (Human), UniProt Q13547); assay: HDAC1 fluorogenic peptide deacetylation assay; type: biochemical; settings: human HDAC1, 50 μM substrate, 30° C., 2 h; read-out: IC50 (nM) of enzyme activity HDAC1
Human HDAC1, sequence (Q13547 whole entry): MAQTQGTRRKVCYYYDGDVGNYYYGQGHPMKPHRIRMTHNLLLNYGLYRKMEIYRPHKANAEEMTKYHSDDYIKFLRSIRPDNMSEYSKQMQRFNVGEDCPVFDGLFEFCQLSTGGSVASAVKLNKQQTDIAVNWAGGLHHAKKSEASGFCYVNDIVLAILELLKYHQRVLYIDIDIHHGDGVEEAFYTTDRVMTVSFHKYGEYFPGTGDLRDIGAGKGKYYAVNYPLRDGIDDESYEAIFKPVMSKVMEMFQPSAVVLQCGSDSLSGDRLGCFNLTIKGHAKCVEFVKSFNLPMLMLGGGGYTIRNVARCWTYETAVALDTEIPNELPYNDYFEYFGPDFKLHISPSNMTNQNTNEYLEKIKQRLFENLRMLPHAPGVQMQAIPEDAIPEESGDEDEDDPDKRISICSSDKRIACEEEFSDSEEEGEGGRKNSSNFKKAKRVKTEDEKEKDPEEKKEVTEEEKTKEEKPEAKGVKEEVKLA

Human HDAC2 = Human HDAC2 (Homo sapiens (Human), UniProt Q92769); assay: HDAC2 fluorogenic peptide deacetylation assay; type: biochemical; settings: human HDAC2, 50 μM substrate, 30° C., 2 h; read-out: IC50 (nM) of enzyme activity HDAC2
Human HDAC2, sequence (Q92769 whole entry): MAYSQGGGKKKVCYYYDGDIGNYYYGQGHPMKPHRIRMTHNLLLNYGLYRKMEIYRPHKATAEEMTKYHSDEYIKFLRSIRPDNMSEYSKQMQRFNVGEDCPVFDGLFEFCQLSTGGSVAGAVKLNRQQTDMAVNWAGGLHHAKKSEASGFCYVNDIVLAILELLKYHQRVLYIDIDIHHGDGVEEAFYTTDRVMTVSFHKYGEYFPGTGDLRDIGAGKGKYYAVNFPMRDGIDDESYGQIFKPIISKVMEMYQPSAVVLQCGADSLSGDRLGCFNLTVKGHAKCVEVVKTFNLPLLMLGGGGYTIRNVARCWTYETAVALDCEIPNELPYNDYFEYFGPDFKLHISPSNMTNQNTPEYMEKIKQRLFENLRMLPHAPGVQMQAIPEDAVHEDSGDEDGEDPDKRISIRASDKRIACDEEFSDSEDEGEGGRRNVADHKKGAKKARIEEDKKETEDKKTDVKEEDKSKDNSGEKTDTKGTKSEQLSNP

Human HDAC3/NcoR2 = Human HDAC3/NcoR2 (Homo sapiens (Human), UniProt O15379); assay: HDAC3 fluorogenic peptide deacetylation assay; type: biochemical; settings: human HDAC3/NcoR2, 50 μM substrate, 30° C., 2 h; read-out: IC50 (nM) of enzyme activity HDAC3
Human HDAC4 = Human HDAC4 (Homo sapiens (Human), UniProt P56524); assay: HDAC4 fluorogenic peptide deacetylation assay; type: biochemical; settings: human HDAC4, 50 μM substrate, 30° C., 2 h; read-out: IC50 (nM) of enzyme activity HDAC4
Human HDAC4, sequence (P56524 627-1084 limits assumed): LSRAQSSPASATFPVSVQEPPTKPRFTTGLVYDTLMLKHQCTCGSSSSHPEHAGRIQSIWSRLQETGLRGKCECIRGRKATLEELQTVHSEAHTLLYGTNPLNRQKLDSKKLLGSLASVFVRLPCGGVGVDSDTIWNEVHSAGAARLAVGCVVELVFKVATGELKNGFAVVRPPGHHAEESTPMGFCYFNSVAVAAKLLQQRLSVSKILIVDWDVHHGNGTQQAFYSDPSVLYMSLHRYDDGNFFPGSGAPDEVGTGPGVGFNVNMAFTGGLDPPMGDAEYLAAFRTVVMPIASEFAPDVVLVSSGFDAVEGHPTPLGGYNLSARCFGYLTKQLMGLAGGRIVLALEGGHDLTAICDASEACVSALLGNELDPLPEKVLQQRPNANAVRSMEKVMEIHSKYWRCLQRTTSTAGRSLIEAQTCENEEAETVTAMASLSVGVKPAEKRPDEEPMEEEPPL

Human HDAC5 = Human HDAC5 (Homo sapiens (Human), UniProt Q9UQL6); assay: HDAC5 fluorogenic peptide deacetylation assay; type: biochemical; settings: human HDAC5, 50 μM substrate, 30° C., 2 h; read-out: IC50 (nM) of enzyme activity HDAC5
Human HDAC5, sequence (Q9UQL6 other isoform, or with tags, fused parts or gaps): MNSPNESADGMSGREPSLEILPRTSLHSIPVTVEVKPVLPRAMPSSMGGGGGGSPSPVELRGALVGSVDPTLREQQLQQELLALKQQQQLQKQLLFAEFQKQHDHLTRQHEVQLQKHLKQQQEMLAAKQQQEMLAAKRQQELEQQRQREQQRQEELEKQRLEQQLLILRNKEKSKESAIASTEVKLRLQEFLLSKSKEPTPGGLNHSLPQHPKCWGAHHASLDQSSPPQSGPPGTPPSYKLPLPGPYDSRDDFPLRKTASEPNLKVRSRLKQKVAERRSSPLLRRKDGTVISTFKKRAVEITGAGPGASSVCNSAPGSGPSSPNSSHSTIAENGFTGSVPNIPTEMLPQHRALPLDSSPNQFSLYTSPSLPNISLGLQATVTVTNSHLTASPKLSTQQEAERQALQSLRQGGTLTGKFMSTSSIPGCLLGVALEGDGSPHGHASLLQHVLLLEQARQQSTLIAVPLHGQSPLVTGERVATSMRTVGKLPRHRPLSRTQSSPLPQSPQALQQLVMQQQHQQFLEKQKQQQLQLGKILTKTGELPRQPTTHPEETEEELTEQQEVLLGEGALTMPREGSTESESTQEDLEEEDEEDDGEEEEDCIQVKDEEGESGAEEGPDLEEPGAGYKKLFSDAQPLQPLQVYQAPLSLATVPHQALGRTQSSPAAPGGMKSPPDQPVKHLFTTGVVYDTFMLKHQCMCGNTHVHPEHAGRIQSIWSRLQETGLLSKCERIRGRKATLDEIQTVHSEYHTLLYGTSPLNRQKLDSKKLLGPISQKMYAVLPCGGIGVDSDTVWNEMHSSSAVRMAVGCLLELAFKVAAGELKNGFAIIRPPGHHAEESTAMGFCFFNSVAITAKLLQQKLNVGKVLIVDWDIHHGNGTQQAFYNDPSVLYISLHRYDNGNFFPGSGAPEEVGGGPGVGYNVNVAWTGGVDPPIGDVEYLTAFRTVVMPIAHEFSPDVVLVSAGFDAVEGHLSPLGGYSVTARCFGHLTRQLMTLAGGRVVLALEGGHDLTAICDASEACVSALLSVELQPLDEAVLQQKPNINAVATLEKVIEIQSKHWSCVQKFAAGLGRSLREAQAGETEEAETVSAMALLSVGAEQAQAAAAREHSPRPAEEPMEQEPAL

Human HDAC6 = Human HDAC6 (Homo sapiens (Human), UniProt Q9UBN7); assay: HDAC6 fluorogenic peptide deacetylation assay; type: biochemical; settings: human HDAC6, 50 μM substrate, 30° C., 2 h; read-out: IC50 (nM) of enzyme activity HDAC6
Human HDAC6, sequence (Q9UBN7 whole entry): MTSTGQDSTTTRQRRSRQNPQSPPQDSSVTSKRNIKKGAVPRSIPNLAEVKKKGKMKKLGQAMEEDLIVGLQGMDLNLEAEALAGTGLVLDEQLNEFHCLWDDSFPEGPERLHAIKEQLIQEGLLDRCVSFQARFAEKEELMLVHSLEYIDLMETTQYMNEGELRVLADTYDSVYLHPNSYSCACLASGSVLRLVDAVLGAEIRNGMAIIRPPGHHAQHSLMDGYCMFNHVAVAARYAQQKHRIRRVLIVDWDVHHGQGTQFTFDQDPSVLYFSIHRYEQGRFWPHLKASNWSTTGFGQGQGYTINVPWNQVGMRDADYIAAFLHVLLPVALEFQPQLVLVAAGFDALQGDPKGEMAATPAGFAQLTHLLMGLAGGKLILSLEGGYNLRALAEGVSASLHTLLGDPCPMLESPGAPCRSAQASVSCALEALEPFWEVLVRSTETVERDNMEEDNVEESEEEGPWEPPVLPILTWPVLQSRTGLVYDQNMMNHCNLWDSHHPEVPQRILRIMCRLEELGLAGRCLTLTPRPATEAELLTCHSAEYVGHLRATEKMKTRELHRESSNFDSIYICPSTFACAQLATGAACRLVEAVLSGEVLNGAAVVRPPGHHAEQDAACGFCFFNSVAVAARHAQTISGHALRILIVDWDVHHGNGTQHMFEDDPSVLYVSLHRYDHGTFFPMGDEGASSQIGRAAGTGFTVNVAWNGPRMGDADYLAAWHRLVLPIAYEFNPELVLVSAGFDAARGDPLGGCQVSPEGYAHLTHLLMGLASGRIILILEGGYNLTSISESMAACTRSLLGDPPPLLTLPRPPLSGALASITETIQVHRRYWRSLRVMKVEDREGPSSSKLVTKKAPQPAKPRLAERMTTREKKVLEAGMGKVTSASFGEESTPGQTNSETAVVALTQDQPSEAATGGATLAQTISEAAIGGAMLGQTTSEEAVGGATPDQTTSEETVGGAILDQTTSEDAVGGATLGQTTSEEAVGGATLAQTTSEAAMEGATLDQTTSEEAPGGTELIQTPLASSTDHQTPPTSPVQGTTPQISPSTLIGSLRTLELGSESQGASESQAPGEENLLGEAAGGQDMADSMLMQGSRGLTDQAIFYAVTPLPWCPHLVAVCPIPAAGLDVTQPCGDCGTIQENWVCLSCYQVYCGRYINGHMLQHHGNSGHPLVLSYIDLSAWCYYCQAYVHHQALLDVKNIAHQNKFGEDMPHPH

Human HDAC7 = Human HDAC7 (Homo sapiens (Human), UniProt Q8WUI4); assay: HDAC7 fluorogenic peptide deacetylation assay; type: biochemical; settings: human HDAC7, 50 μM substrate, 30° C., 2 h; read-out: IC50 (nM) of enzyme activity HDAC7
Human HDAC7, sequence (Q8WUI4 479-952 limits assumed): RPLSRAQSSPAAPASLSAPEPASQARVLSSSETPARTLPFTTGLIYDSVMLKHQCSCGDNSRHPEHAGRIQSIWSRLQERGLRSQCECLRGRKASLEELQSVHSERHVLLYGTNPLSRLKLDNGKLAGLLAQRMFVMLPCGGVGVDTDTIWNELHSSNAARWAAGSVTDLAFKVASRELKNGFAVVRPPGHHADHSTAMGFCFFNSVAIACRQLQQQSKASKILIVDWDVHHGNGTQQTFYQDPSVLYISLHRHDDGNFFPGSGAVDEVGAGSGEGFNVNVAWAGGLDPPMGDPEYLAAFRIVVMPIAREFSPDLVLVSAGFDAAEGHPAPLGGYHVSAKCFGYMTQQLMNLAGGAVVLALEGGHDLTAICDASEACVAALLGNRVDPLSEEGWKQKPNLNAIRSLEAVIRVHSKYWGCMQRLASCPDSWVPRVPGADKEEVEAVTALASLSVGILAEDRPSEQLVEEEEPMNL

Human HDAC8 = Human HDAC8 (Homo sapiens (Human), UniProt Q9BY41); assay: HDAC8 fluorogenic peptide deacetylation assay; type: biochemical; settings: human HDAC8, 50 μM substrate, 30° C., 2 h; read-out: IC50 (nM) of enzyme activity HDAC8
Human HDAC9 = Human HDAC9 (Homo sapiens (Human), UniProt Q9UKV0); assay: HDAC9 fluorogenic peptide deacetylation assay; type: biochemical; settings: human HDAC9, 50 μM substrate, 30° C., 2 h; read-out: IC50 (nM) of enzyme activity HDAC9
Human HDAC10 = Human HDAC10 (Homo sapiens (Human), UniProt Q969S8); assay: HDAC10 fluorogenic peptide deacetylation assay; type: biochemical; settings: human HDAC10, 50 μM substrate, 30° C., 2 h; read-out: IC50 (nM) of enzyme activity HDAC10
Human HDAC10, sequence (Q969S8 1-631): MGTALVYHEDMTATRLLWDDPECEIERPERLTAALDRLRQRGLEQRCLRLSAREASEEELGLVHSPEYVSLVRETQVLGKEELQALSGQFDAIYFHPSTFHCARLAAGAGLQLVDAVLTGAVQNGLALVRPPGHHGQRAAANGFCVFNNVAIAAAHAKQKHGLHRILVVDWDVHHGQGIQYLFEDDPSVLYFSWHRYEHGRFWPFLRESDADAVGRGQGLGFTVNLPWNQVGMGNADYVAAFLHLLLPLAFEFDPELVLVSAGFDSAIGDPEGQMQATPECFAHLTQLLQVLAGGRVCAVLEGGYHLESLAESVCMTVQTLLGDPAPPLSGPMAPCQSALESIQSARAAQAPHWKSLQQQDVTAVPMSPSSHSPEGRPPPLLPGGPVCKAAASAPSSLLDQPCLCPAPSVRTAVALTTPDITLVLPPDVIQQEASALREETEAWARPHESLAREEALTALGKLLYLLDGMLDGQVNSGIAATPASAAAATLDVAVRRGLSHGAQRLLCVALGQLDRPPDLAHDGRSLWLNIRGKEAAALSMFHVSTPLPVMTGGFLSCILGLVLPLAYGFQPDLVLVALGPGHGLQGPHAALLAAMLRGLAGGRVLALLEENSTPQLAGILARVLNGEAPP

Human HDAC11 = Human HDAC11 (Homo sapiens (Human), UniProt Q96DB2); assay: HDAC11 fluorogenic peptide deacetylation assay; type: biochemical; settings: human HDAC11, 50 μM substrate, 30° C., 2 h; read-out: IC50 (nM) of enzyme activity HDAC11
[1] = tested on: Nuclear Extract from HeLa Cells; assay: HeLa Nuclear Extract HDAC assay; type: biochemical, human; settings: 50 μM substrate, 30° C., 2 h, read-out: IC50 (nM) of enzyme activity HeLa

Compound: N.N.[Cl][Pt][Cl] [Cisplatin, reference compound]
IC50 (MCF-7): 7.75 µM
IC50 (MDA-MB-231): 99.8 µM
IC50 (SK-BR-3): 1.74 µM
IC50 (DU145): 4.01 µM
IC50 (LNCaP): 8.92 µM
IC50 (PC-3): 11.5 µM
IC50 (DLD-1): 18.3 µM
IC50 (HT-29): 14.9 µM
IC50 (LoVo): 4.65 µM
IC50 (SW480): 10.8 µM
IC50 (SW620): 84.3 µM
IC50 (A549): 28.4 µM
IC50 (Calu-6): 1.61 µM
IC50 (NCI-H226): 9.5 µM
IC50 (NCI-H460): 6.93 µM
IC50 (SK-MES-1): 5.12 µM
IC50 (U87MG): 7.61 µM
IC50 (Bx-PC-3): 6.12 µM
IC50 (PANC-1): 24.8 µM
IC50 (786-O): 4.32 µM
IC50 (Hep3B): 3.96 µM
IC50 (A375): 6.55 µM
IC50 (SK-MEL-5): 2.87 µM
IC50 (CNE2): 11.8 µM
IC50 (MCG803): 11.4 µM
IC50 (NCI-N87): 8.24 µM
IC50 (BGC823): 1.29 µM
IC50 (SK-OV-3): 4.42 µM
IC50 (OVCAR3): 11.7 µM
IC50 (K562): 13.2 µM
IC50 (KB): 3.97 µM
IC50 (RPMI-8226): 1.06 µM

IC50 (Human HDAC1): 332 nM
IC50 (Human HDAC2): 1840 nM
IC50 (Human HDAC3/NcoR2): 5830 nM
IC50 (Human HDAC4): > 5000 nM
IC50 (Human HDAC5): 8640 nM
IC50 (Human HDAC6): 2890 nM
IC50 (Human HDAC7): > 5000 nM
IC50 (Human HDAC8): > 5000 nM
IC50 (Human HDAC9): > 5000 nM
IC50 (Human HDAC10): 8550 nM
IC50 (Human HDAC11): 5660 nM
IC50 [1]: 1080 nM
Compound: Nc1ccccc1NC(=O)c1ccc(CNC(=O)c2[nH]c(-c3ccc(O)cc3)cc2-c2ccoc2)cc1 [Example 37, N-(4-{[(2-aminophenyl)amino)carbonyl]benzyl}-3-(3-furyl)-5-(4-hydroxyphenyl)-1H-pyrrole-2-carboxamide]
